Results published in US11135186B2, “Regulators of the endoplasmic reticulum proteostasis network” (The Scripps Research Institute, priority 2015, dated 2021).

Columns and labels:
[1] = tested on: ERSE-FLuc reporter (ATF6 arm of the UPR); experiment: ERSE-FLuc reporter, 1536-well confirmation screen in HEK293T-Rex cells; format: cell-based; settings: % Tg (500 nM) activation, triplicate confirmation screen at 6.8 μM, 18 h
Source text: We employed a transcriptional reporter that quantifies activation of the ATF6 arm of the UPR in HEK293T-Rex cells. This reporter contains a fragment of the UPR-inducible BiP promoter, including three ER stress-responsive elements (ERSEs), driving expression of firefly luciferase (ERSE-FLuc; FIG. 1a)^34. We previously employed this reporter for a small-scale screen using the 1280 member compound Library of Pharmacologic Active Compounds (LoPAC) to find small molecules that activate the UPR^8. […] Optimization and miniaturization of this assay to 1536-well format was performed at the Scripps Research Institute Molecule Screening Center (SRIMSC).
HEK293T-Rex cells incorporating either the ERSE-FLuc or XBP1s-RLuc reporters were collected by trypsinization and resuspended at a density of 500,000 cells per mL. The assay was started by dispensing 5 μL of cell suspension into each well of white, solid-bottom 1536-well plates using a flying reagent dispenser (FRD) and placed into an online incubator 3 h. Cells were then treated with 34 nL/well of either test compounds to give final concentrations of 6.8 μM, DMSO (Low control, final concentration 0.68%, 0% activation) or […] of Delta-7 thapsigargin (High control, final concentration 500 nM, 100% activation). Plates were incubated for 18 h at 37° C., removed from the incubator and equilibrated to room temperature for 10 min. Luciferase activity was detected by addition of 5 μL of ONE-Glo reagent (Promega) to each well. After a 10 min incubation time, light emission was measured with the ViewLux reader (PerkinElmer). The percent activation of each test compound was calculated as follows: % Activation=100*(Test Compound−Median Low Control)/(Median High Control ˜Median Low Control).

HepG2 cells = experiment: HepG2 viability (CellTiter-Glo); format: cell-based
Method: HepG2 cells were plated at 5,000 cells/well in a translucent, flat-bottomed 96 well plate, and treated for 48 hr with vehicle, 10 μM Tg or 10 μM ER proteostasis regulator. ALMC-2 or KAS-6/1 cells were plated at 33,000 cells/well in 96-well plates then treated with proteostasis regulators for 16 h as described. Cell metabolic activity was measured using the CellTiter-Glo assay (Promega), which reports on intracellular ATP concentration. CellTiter-Glo reagent was added to cell culture media at a 1:1 ratio and incubated for 2 minutes on an orbital shaker to induce cell lysis. The plate was then incubated at room temperature for 10 minutes to stabilize the luminescent signal and read on a Tecan F200 Pro microplate reader.

[2] = tested on: BiP expression in HepG2 cells; experiment: BiP qPCR in HepG2 cells; format: cell-based
Method: Cells were treated as described at 37° C., washed with Dulbecco's phosphate-buffered saline (Gibco), and then RNA was extracted using the RNeasy Mini Kit (Qiagen). qPCR reactions were performed on cDNA prepared from 500 ng of total cellular RNA using the QuantiTect Reverse Transcription Kit (Qiagen). The FastStart Universal SYBR Green Master Mix (Roche), cDNA, and appropriate human primers^4 or mouse primers (BiP; […] (SEQ ID NO: 5) and […] (SEQ ID NO: 6) purchased from Integrated DNA Technologies were used for amplifications (45 cycles of 1 min at 95° C., 10 s at 95° C., 30 sec at 60° C.) in an ABI 7900HT Fast Real Time PCR machine. Primer integrity was assessed by a thermal melt to confirm homogeneity and the absence of primer dimers. Transcripts were normalized to the housekeeping gene Rplp2 and all measurements were performed in triplicate. Data were analyzed using the RQ Manager and DataAssist 2.0 softwares (ABI).

[3] = tested on: endogenous secretory proteome of HepG2^ATF6 cells; experiment: [35S] metabolic labeling, total secreted protein from HepG2^ATF6 cells; format: cell-based; settings: 15 h pretreatment, 10 μM compound or 1 μM Tg, 4 h chase
Method: HepG2 cells or HEK293T cells plated on poly-D-lysine coated plates were metabolically labeled in DMEM-Cys/-Met (CellGro) supplemented with glutamine, penicillin/streptomycin, dialyzed fetal bovine serum, and EasyTag EXPRESS^35S Protein Labeling Mix (Perkin Elmer) for 30 min. Cells were washed twice with complete media and incubated in prewarmed DMEM for the indicated times. Media or lysates were harvested at the indicated times. Lysates were prepared in RIPA buffer with fresh protease inhibitor cocktail (Roche). FLAG tagged TTR variants or ALLC were immunopurified using M1 anti-FLAG agarose beads (Sigma-Aldrich) and washed three times with RIPA buffer. The immunoisolates were then eluted by boiling in Laemmli buffer and separated on SDS-PAGE. For total secreted media, 15 uL aliquots from media incubated for 4 hrs on pulsed cells were run on a SDS-PAGE. The gels were then dried, exposed to phosphorimager plates (GE Healthcare), and imaged with a Typhoon imager. Band intensities were quantified by densitometry in ImageQuant. Fraction secreted was calculated using the equation: fraction secreted=[extracellular [^35S]-LC signal at t=t/(extracellular [^35S]-LC signal at t=0+intracellular [^35S]-LC signal at t=0)]. Fraction remaining was calculated using the equation: [(extracellular [^35S]-LC signal at t=t+intracellular [^35S]-LC signal at t=t)/(extracellular [^35S]-LC signal at t=0+ intracellular [^35S]-LC signal at t=0)].

[4] = tested on: ALLC interaction with BiP and GRP94; experiment: In situ cross-linking and ALLC co-immunopurification in ALMC-2 cells; format: cell-based, human; settings: 10 μM, 16 h, cross-linking
Method: For immunoprecipitations, cells were washed with PBS then cross-linked with 0.5 mM Dithiobis(succinimidyl propionate) (DSP) for 30 min at room temperature. The reaction was quenched by addition of 100 mM Tris pH 7.5, then RIPA buffer was added to the cell pellets for lysis. Lysates were cleared by centrifugation at centrifuged at 10000×g for 15 min. Proteins were immunopurified using sheep polyclonal free λ LC antibody (Bethyl Laboratories A80-127A) that was covalently conjugated to CNBr-activated Sepharose 4B (GE Healthcare). After four washes in RIPA buffer, proteins were eluted by boiling in Laemmli buffer+100 mM DTT and samples were separated by SDS-PAGE and transferred to nitrocellulose membranes. Blots were probed with the following primary antibodies: monoclonal mouse M2 anti-FLAG (1:500, Sigma), polyclonal rabbit anti-TTR (1:1000, Dako), rabbit polyclonal anti-human lambda light chain (1:1000, Bethyl Laboratories A90-112A), mouse monoclonal anti-Grp78 (1:500, Santa Cruz Biotechnology sc-166490), rabbit polyclonal anti-Grp94 (1:1000, GeneTex GTX103203), rabbit polyclonal anti-PDIA4 (1:1000, Protein Tech Group 14712-1-AP), mouse monoclonal anti-ATF6a (1-7) (BioAcademia, 1:1000), rabbit anti-phospho eIF2α (CellSignaling #9721, 1:500), mouse anti-eIF2α (Abcam ab5369, 1:1000) and mouse monoclonal anti β-actin (1:10000, Sigma).

Row | Structure (SMILES) | % ERSE-FLuc activation [1] | HepG2 viability (HepG2 cells; 10 μM) | HepG2 viability (HepG2 cells; 100 μM) | expression of the ATF6-target gene BiP in HepG2 cells [2] | accumulation of [35S]-labeled protein in media (total secreted proteome) [3] | ALLC interaction with BiP and GRP94 [4]
1 | Cc1ccc(O)c(N/C=C/C(=O)c2ccc(F)cc2)c1 [Compound 132] | 140.1 ± 17.4% | do not significantly influence | reduce | induced | did not influence | increased
2 | Cc1ccc(O)c(NC(=O)CCc2ccccc2)c1 [Compound 147] | 63.2 ± 0.6% | do not significantly influence | reduce | induced | did not influence | increased
3 | O=[N+]([O-])c1ccc(N/N=C/c2ccccc2O)cc1 [Compound 263] | 20.7 ± 2.3% | do not significantly influence | reduce | induced | did not influence | unchanged
